Values of other authors, collected in US20040063806A1, “Antimicrobial polyalphaolefin composition” (priority 2000, published 2004).
Read-outs that look alike come from different tables or passages of the source.

Assays:
Bacillus subtilis = Bacillus subtilis NCTC 8236, medium NA
Clostridium perfringens = Clostridium perfringens NCTC 3110, medium EA
[1] = system: Corynebacterium diphtherias; conditions: Corynebacterium diphtherias NCTC 3984, medium BHI-A
Corynebacterium xerosis = Corynebacterium xerosis ATCC 373, medium M-H
Enterococcus arabinosus = Enterococcus arabinosus ATCC 8014, medium MACA
Lactobacillus rhamnosus = Lactobacillus rhamnosus NCTC 7469, medium MACA
Micrococcus luteus = Micrococcus luteus ATCC 7468, medium M-H
Mycobacterium phlei = conditions: origin A, medium BHI-A
[2] = system: Mycobacterium tuberculosis; conditions: origin A, medium YA
Nocardia asteroides = Nocardia asteroides NCTC 6761, medium BHI-A
Sarcina lutee = Sarcina lutee NCTC 196, medium BHI-A
Sporosarcina urea = Sporosarcina urea ATCC 6473, medium BHI-A
[3] = system: Staphylococcus epidermidis; conditions: Staphylococcus epidermidis ATCC 12228, medium M-H
Staphylococcus hominis = Staphylococcus hominis ATCC 27844, medium M-H
Staphylococcus hyicus = Staphylococcus hyicus NCTC 7944, medium BHI-A
[4] = system: Staphylococcus saprophyticus; conditions: Staphylococcus saprophyticus NCTC 7292, medium NA
[5] = system: Streptococcus heamolyticus A; conditions: origin A, medium BHI-A
Streptococcus pyogenes = Streptococcus pyogenes ATCC 21059, medium M-H
Streptococcus coelicolor = conditions: origin A, medium BHI-A
Aerobacter arogenes = Aerobacter arogenes CITM 413, medium NA
Acinetobacter lwoffii = Acinetobacter lwoffii ATCC 15309, medium M-H
Bacteroides fragilis = Bacteroides fragilis ATCC 23745, medium M-H
Citrobacter freundii = conditions: origin A, medium NA
Enterobacter aerogenes = Enterobacter aerogenes ATCC 13048, medium M-H
Enterobacter cloacae = Enterobacter cloacae ATCC 13047, medium M-H
Klebsiella edwardsii = Klebsiella edwardsii NCTC 7242, medium NA
Loefferella pseudomallei = Loefferella pseudomallei NCIB 10230, medium NA
Moraxella glucidolytica = conditions: origin A, medium NA
Moraxella lwolffii = conditions: origin A, medium NA
[6] = system: Pseudomonas fluorescencens; conditions: Pseudomonas fluorescencens NCTC 4755, medium NA
Salmonella enteritidis = conditions: origin A, medium NA
Shigella dysenteriae = Shigella dysenteriae NCTC 2249, medium NA
Candida paracrusei = conditions: origin A, medium SMA
Candida parapsylosis = conditions: origin A, medium SMA
Microsporum canis = Microsporum canis ATCC 10214, medium SMA
Pityrosporum ovalae = Pityrosporum ovalae ATCC 14521, medium M
[7] = system: Trichophyton mentsgrophytes; conditions: Trichophyton mentsgrophytes ATCC 9533, medium SMA
Trichophyton rubrum = conditions: origin A, medium SMA
Trochophyton tonsurans = conditions: origin A, medium SMA

## Oc1cc(Cl)ccc1Oc1ccc(Cl)cc1Cl [IRGAGUARD B 1000, 2,4,4′-trichloro-2′-hydroxydiphenyl ether]
Bacillus subtilis
  Microbiostatic effect: 0.1 ppm
Clostridium perfringens
  Microbiostatic effect: 10.0 ppm
[1]
  Microbiostatic effect: 3.0 ppm
Corynebacterium xerosis
  Microbiostatic effect: 5.0 ppm
Enterococcus faecium; Enterococcus faecium ATCC 10541, medium BHI-A
  Microbiostatic effect: 3.0 ppm
Enterococcus faecium; Enterococcus faedium ATCC 6057, medium M-H
  Microbiostatic effect: 4.0 ppm
Enterococcus faecium; Enterococcus faedium NCTC 8619, medium BHI-A
  Microbiostatic effect: 10.0 ppm
Enterococcus arabinosus
  Microbiostatic effect: 33.0 ppm
Lactobacillus rhamnosus
  Microbiostatic effect: 33.0 ppm
Micrococcus luteus
  Microbiostatic effect: 4.0 ppm
Mycobacterium phlei
  Microbiostatic effect: 0.3 ppm
[2]
  Microbiostatic effect: 100.0 ppm
Nocardia asteroides
  Microbiostatic effect: 3.0 ppm
Sarcina lutee
  Microbiostatic effect: 3.0 ppm
Sporosarcina urea
  Microbiostatic effect: 0.1 ppm
[3]
  Microbiostatic effect: <0.125 ppm
Staphylococcus hominis
  Microbiostatic effect: 1.0 ppm
Staphylococcus hyicus
  Microbiostatic effect: 0.03 ppm
[4]
  Microbiostatic effect: 0.1 ppm
[5]
  Microbiostatic effect: 3.0 ppm
Streptococcus pyogenes
  Microbiostatic effect: 4.0 ppm
Streptococcus coelicolor
  Microbiostatic effect: 1.0 ppm
Aerobacter arogenes
  Microbiostatic effect: 1.0 ppm
Acinetobacter lwoffii
  Microbiostatic effect: 0.125 ppm
Bacteroides fragilis
  Microbiostatic effect: 2.0 ppm
Citrobacter freundii
  Microbiostatic effect: 3.0 ppm
Enterobacter aerogenes
  Microbiostatic effect: 0.5 ppm
Enterobacter cloacae
  Microbiostatic effect: 0.5 ppm
Klebsiella edwardsii
  Microbiostatic effect: 0.3 ppm
Loefferella pseudomallei
  Microbiostatic effect: 1.0 ppm
Moraxella glucidolytica
  Microbiostatic effect: 0.3 ppm
Moraxella lwolffii
  Microbiostatic effect: 0.1 ppm
[6]
  Microbiostatic effect: >100 ppm
Salmonella enteritidis
  Microbiostatic effect: 0.1 ppm
Shigella dysenteriae
  Microbiostatic effect: 0.1 ppm
Shigella flexneri; Shigella flexneri NCTC 8192, medium NA
  Microbiostatic effect: 0.3 ppm
Shigella flexneri; Shigella flexneri NCTC 8204, medium NA
  Microbiostatic effect: 0.1 ppm
Candida paracrusei
  Microbiostatic effect: 4 ppm
Candida parapsylosis
  Microbiostatic effect: 30 ppm
Candida tropicalis; Candida tropicalis DSM 1346, medium M-H
  Microbiostatic effect: 10 ppm
Candida tropicalis; Candida tropicalis, origin A, medium SMA
  Microbiostatic effect: 10 ppm
Microsporum canis
  Microbiostatic effect: 3 ppm
Pityrosporum ovalae
  Microbiostatic effect: >1000 ppm
[7]
  Microbiostatic effect: 1 ppm
Trichophyton rubrum
  Microbiostatic effect: 10 ppm
Trochophyton tonsurans
  Microbiostatic effect: 10 ppm
